Results published in patent US10226044B2, “Agricultural and horticultural composition and method for cultivating plant” (AJINOMOTO CO., INC., priority 2014, dated 2019).

How the values were obtained:
tomato (Momotaro Fight) = assay: Sprinkling of various compounds on tomato (Momotaro): first appearance, coloring and number of fruit; type: in vivo; settings: per four root clumps; for number of fruit turning color to orange or red: 107th day after sowing, water: 0; for number of harvested fruits: after cultivation for 3 months after sowing, water: 8
Protocol: Three seeds of tomato (Momotaro Fight) were shown in compost contained in a slit pot, and cultivated in the same manner as described in Example 1, provided that the cultivation was performed in a greenhouse (daytime temperature was 25° C. (6:00 to 20:00), and night temperature was 15° C. (20:00 to 6:00)). The compost and application of fertilizer were the same or performed in the same manner as those described in Example 1. After 3 weeks, one root clump was left, and the others were thinned out. When a flower cluster of the first tier appeared, a support was put up, and after a flower cluster of the second tier appeared, pinching was performed (pinching of terminal bud). After the plants of four root clumps uniformly grew, and flower buds began to appear, water (Con.), 10 mM L-isoleucine aqueous solution (Ile), 10 mM monosodium glutamate aqueous solution (GluNa), 5 mM urea aqueous solution (Urea), or 10 mM phenylalanine aqueous solution (Phe) was sprinkled on the whole plants every two weeks. The sprinkled volume was adjusted in accordance with the growth of the plants, and it was 15 to 30 mL per one root clump. The concentration of urea was 5 mM so that nitrogen amount provided by it was the same as that provided by each of the amino acids. Then, the first appearance of fruit, ripening of fruit, and number of fruit produced were investigated for each root clump.

[1] = tested on: cherry tomato (Suncherry Pure); type: in vivo; settings: 10 mM sprinkled once a week
Protocol: Three seeds of cherry tomato (Suncherry Pure, Tokita Seed) were shown in compost contained in a slit pot, and cultivated in the same manner as described in Example 1, provided that the cultivation was performed in a greenhouse as in Example 2. The compost and application of fertilizer were the same or performed in the same manner as those described in Example 1. One month after the sowing, each seedling was permanently planted in a 9.0-cm long pot (top diameter 9 cm, height 20 cm, bottom diameter 6.4 cm), and cultivated until harvest. As for application of fertilizer, a 200-fold diluted solution of Vegetable Life A (Otsuka Chemical) was additionally applied as a fertilizer by irrigation in a volume of 100 mL per one root clump (pot) every two days from one month after the sowing to the harvest. After the plants of four root clumps uniformly grew, and flower buds began to appear, water (Con.), 10 mM L-isoleucine aqueous solution (Ile), or 10 mM proline aqueous solution (Pro) was sprinkled on the whole plants once a week. The sprinkled volume was adjusted in accordance with the growth of the plants, and it was 15 to 30 mL per one root clump. Then, ripening of fruit, number of fruit, amino acid content of fruit juice, sugar content and acidity of fruit juice, and antioxidant capacity of fruit juice were investigated for each root clump.

[2] = tested on: cherry tomato (Suncherry Pure); assay: Amino acid analysis of tomato fruit obtained with sprinkling of Ile or Pro; type: in vivo; settings: fruit juice; plants sprinkled with 10 mM solution once a week; average of 8 fruit
Protocol: (§1) After the plants of four root clumps uniformly grew, and flower buds began to appear, water (Con.), 10 mM L-isoleucine aqueous solution (Ile), or 10 mM proline aqueous solution (Pro) was sprinkled on the whole plants once a week. The sprinkled volume was adjusted in accordance with the growth of the plants, and it was 15 to 30 mL per one root clump.
Mature fruit were taken from each of the cherry tomato plants sprinkled with water, Ile, or Pro, and the amino acid content was analyzed for each. Two pieces of fruit were taken from the flower cluster of the second tier of one root clump, that is, a total of 8 pieces of fruit were taken for each test group. Fruit juice was pressed out of each piece of fruit, and the fruit juice was diluted 10 times with 0.02 N HCl, and subjected to filter filtration. The amino acids contained in the obtained filtrate were measured. Measurement of the amino acids was performed with High Speed Amino Acid Analyzer L-8800 (Hitachi) according to the manual of this instrument. The amounts of the amino acids (μmol/mL) in each fruit juice filtrate were calculated, and the averages for eight pieces of fruit were used as the amino acid amounts of the corresponding test group.

[3] = tested on: cherry tomato (Suncherry Pure); assay: Sugar content and acidity analysis of tomato fruit juice; type: in vivo; settings: 10 mM sprinkled once a week
Protocol: as §1
Mature tomato fruit were taken from cherry tomato plants of each experimental group in the same manner as described in iii) above, and fruit juice was pressed out from each fruit. Glucose content, fructose content, and acidity of each fruit juice extract were analyzed. Analysis of glucose and fructose was performed for a 20-fold diluted solution of fruit juice by using a food analysis reagent kit, F-Kit (Saccharose (Sucrose)/D-Glucose/D-Fructose Kit (Roche)) and DU800 Spectrophotometer (Beckman Coulter) according to the manuals of the kit and instrument. Acidity analysis was performed by using a pocket acidity meter (PAL-AC1, ATAGO).

[4] = tested on: VR callus derived from European grape; assay: Anthocyanin content of grape calluses treated with amino acids; type: cell-based, Vitis vinifera L.
Protocol: A cell line (VR, management number RPC00003) derived from European grape (Vitis vinifera L.) and stored in the Institute of Physical and Chemical Research, BioResource Center was subcultured on the MS agar medium. The subcultured VR callus was transferred to the MS agar medium containing a 5 mM solution of a different amino acid, and cultured. For the positive control, abscisic acid (ABA), for which coloring-promoting effect is known, was used at 100 μM (Jeong et al., Plant Science, 167:247-252, 2004). On the 5th day after the transfer, the callus was lyophilized and ground, and anthocyanin was extracted from it by using a 1% HCl/MeOH solution. Absorbance of the extract was measured at 530 nm, and the content of anthocyanin was measured by using cyanidine 3-glucoside as a standard substance.
(2) In the same manner as described above, anthocyanin content of grape calluses treated with isoleucine and proline, respectively, were measured.

N[C@@H](CCC(=O)O)C(=O)[O-].[Na+] [GluNa, monosodium glutamate]
number of fruit turning color to orange or red (tomato (Momotaro Fight)): 1
number of harvested fruits (tomato (Momotaro Fight)): 14

N[C@@H](Cc1ccccc1)C(=O)O [Phe, phenylalanine]
number of fruit turning color to orange or red (tomato (Momotaro Fight)): 0
number of harvested fruits (tomato (Momotaro Fight)): 8

O=C(O)[C@@H]1CCCN1 [Pro, proline, reference compound]
final crop yield: number of fruit produced, larger as compared to water (Con.) [1]: 9%
number of tomatoes that had changed color [1]: larger in the order of the tomato plants sprinkled with Ile, Pro, and water (Con.)
Ala in fruit juice [2]: 3.79 µmol/mL
Arg in fruit juice [2]: 0.13 µmol/mL
Asn in fruit juice [2]: 0.63 µmol/mL
Asp in fruit juice [2]: 1.75 µmol/mL
Cys in fruit juice [2]: 0.08 µmol/mL
Gln in fruit juice [2]: 1.57 µmol/mL
Glu in fruit juice [2]: 7.76 µmol/mL
Gly in fruit juice [2]: 0.24 µmol/mL
His in fruit juice [2]: 0.17 µmol/mL
Ile in fruit juice [2]: 0.15 µmol/mL
Leu in fruit juice [2]: 0.29 µmol/mL
Lys in fruit juice [2]: 0.27 µmol/mL
Met in fruit juice [2]: 0.14 µmol/mL
Phe in fruit juice [2]: 0.38 µmol/mL
Pro in fruit juice [2]: 0.39 µmol/mL
Ser in fruit juice [2]: 0.61 µmol/mL
Thr in fruit juice [2]: 0.27 µmol/mL
Total amino acids in fruit juice [2]: 21.13 µmol/mL
Trp in fruit juice [2]: 0.072 µmol/mL
Tyr in fruit juice [2]: 0.185 µmol/mL
Val in fruit juice [2]: 0.18 µmol/mL
γ-ABA in fruit juice [2]: 4.46 µmol/mL
acidity of the fruit, comparison of groups [3]: slightly increased
glucose content and fructose content of the fruit, comparison of groups [3]: lowest
Acidity ([3]; fruit juice of mature fruit): 0.47%
Fructose ([3]; fruit juice of mature fruit): 12.2 g/L
Glucose ([3]; fruit juice of mature fruit): 12.3 g/L
change in color of the grape callus (anthocyanin content) ([4]; Ile of 1 mM or higher, Pro compared with Ile): weaker

N[C@@H](Cc1ccc(O)cc1)C(=O)O [Try, reference compound]
Relative anthocyanin content ([4]; 5 mM amino acid in MS agar medium, 5th day after transfer, positive control 100 μM abscisic acid (ABA) taken as 100%): 0%

NC(N)=O [Urea, urea]
number of fruit turning color to orange or red (tomato (Momotaro Fight)): 1
number of harvested fruits (tomato (Momotaro Fight)): 10
